Source: ChEMBL document CHEMBL3885861, “Open TG-GATES”

Organism: Rattus norvegicus
Experiment: Open TG-GATES - Regimen: Single
Format: toxicity, organism-based, Sprague-Dawley
Set-up: regimen Single, gender Male, age 6 weeks
Conditions: in vivo, iv, 0 mg/kg, route intravenous injection, dose level Control; for APTT / Bas / Eos / Fbg / Hb / Ht / Lym / MCH / MCHC / MCV / Mono / Neu / PT / Plat / RBC / Ret / WBC: tissue Blood; for KIDNEY_L / KIDNEY_R / KIDNEY_TOTAL: tissue Kidney; for LIVER: tissue Liver; for A/G / ALP / ALT / AST / BUN / CRE / Ca / Cl / DBIL / GLC / IP / K / LDH / Na / PL / RALB / TBIL / TC / TG / TP / gamma-GTP: tissue Plasma

C[C@@H]1[C@H](O)[C@@H](C)/C=C/C=C/C=C/C=C/C=C/C=C/C=C/[C@H](O[C@@H]2O[C@H](C)[C@@H](O)[C@H](N)[C@@H]2O)C[C@@H]2O[C@](O)(C[C@@H](O)C[C@@H](O)[C@H](O)CC[C@@H](O)C[C@@H](O)CC(=O)O[C@H]1C)C[C@H](O)[C@H]2C(=O)O [AMPHOTERICIN B]
TERMINAL_BW (3 h): 219.1 g
APTT (3 h): 17.6 s
Bas (3 h): 0%
Eos (3 h): 0.6%
Fbg (3 h): 275.4 mg/dL
Hb (3 h): 13.2 g/dL
Ht (3 h): 39.1%
Lym (3 h): 78.4%
MCH (3 h): 20.8 pg
MCHC (3 h): 33.9%
MCV (3 h): 61.3 fL
Mono (3 h): 2.6%
Neu (3 h): 17.2%
PT (3 h): 13.1 s
Plat (3 h): 131.5 x10_4/uL
RBC (3 h): 638.4 x10_4/ul
Ret (3 h): 7%
WBC (3 h): 102.7 x10_2/uL
KIDNEY_L (3 h): 0.9 g
KIDNEY_R (3 h): 1 g
KIDNEY_TOTAL (3 h): 1.9 g
LIVER (3 h): 9.9 g
A/G (3 h): 0.8
ALP (3 h): 1671 IU/L
ALT (3 h): 40.4 IU/L
AST (3 h): 86 IU/L
BUN (3 h): 11.4 mg/dL
CRE (3 h): 0.2 mg/dL
Ca (3 h): 11 mg/dL
Cl (3 h): 106.2 meq/L
DBIL (3 h): 0.02 mg/dL
GLC (3 h): 167.2 mg/dL
IP (3 h): 8.3 mg/dL
K (3 h): 3.9 meq/L
LDH (3 h): 67 IU/L
Na (3 h): 142 meq/L
PL (3 h): 130.4 mg/dL
RALB (3 h): 2.5 g/dL
TBIL (3 h): 0.066 mg/dL
TC (3 h): 75.4 mg/dL
TG (3 h): 58.8 mg/dL
TP (3 h): 5.5 g/dL
gamma-GTP (3 h): 1.6 IU/L
TERMINAL_BW (6 h): 212 g
APTT (6 h): 17 s
Bas (6 h): 0%
Eos (6 h): 0.8%
Fbg (6 h): 271.2 mg/dL
Hb (6 h): 13.4 g/dL
Ht (6 h): 39.9%
Lym (6 h): 77.2%
MCH (6 h): 21.1 pg
MCHC (6 h): 33.6%
MCV (6 h): 62.6 fL
Mono (6 h): 1.8%
Neu (6 h): 19.6%
PT (6 h): 13.1 s
Plat (6 h): 129.4 x10_4/uL
RBC (6 h): 637.4 x10_4/ul
Ret (6 h): 8.6%
WBC (6 h): 90.4 x10_2/uL
KIDNEY_L (6 h): 0.9 g
KIDNEY_R (6 h): 0.9 g
KIDNEY_TOTAL (6 h): 1.9 g
LIVER (6 h): 8.8 g
A/G (6 h): 0.8
ALP (6 h): 1553.8 IU/L
ALT (6 h): 35.6 IU/L
AST (6 h): 68 IU/L
BUN (6 h): 8.4 mg/dL
CRE (6 h): 0.1 mg/dL
Ca (6 h): 10.6 mg/dL
Cl (6 h): 105 meq/L
DBIL (6 h): 0.014 mg/dL
GLC (6 h): 182.2 mg/dL
IP (6 h): 9.9 mg/dL
K (6 h): 3.9 meq/L
LDH (6 h): 50.8 IU/L
Na (6 h): 142 meq/L
PL (6 h): 125.8 mg/dL
RALB (6 h): 2.5 g/dL
TBIL (6 h): 0.064 mg/dL
TC (6 h): 76.2 mg/dL
TG (6 h): 46.8 mg/dL
TP (6 h): 5.5 g/dL
gamma-GTP (6 h): 1.6 IU/L
TERMINAL_BW (9 h): 208.7 g
APTT (9 h): 17.4 s
Bas (9 h): 0%
Eos (9 h): 1%
Fbg (9 h): 281.4 mg/dL
Hb (9 h): 13.4 g/dL
Ht (9 h): 39.1%
Lym (9 h): 71.8%
MCH (9 h): 21.1 pg
MCHC (9 h): 34.2%
MCV (9 h): 61.6 fL
Mono (9 h): 1.8%
Neu (9 h): 24.4%
PT (9 h): 13.2 s
Plat (9 h): 136.6 x10_4/uL
RBC (9 h): 635 x10_4/ul
Ret (9 h): 8.1%
WBC (9 h): 80.2 x10_2/uL
KIDNEY_L (9 h): 0.9 g
KIDNEY_R (9 h): 0.9 g
KIDNEY_TOTAL (9 h): 1.8 g
LIVER (9 h): 8.3 g
A/G (9 h): 0.8
ALP (9 h): 1611.8 IU/L
ALT (9 h): 30.6 IU/L
AST (9 h): 67.6 IU/L
BUN (9 h): 8.6 mg/dL
CRE (9 h): 0.1 mg/dL
Ca (9 h): 10.6 mg/dL
Cl (9 h): 106.4 meq/L
DBIL (9 h): 0.018 mg/dL
GLC (9 h): 170.2 mg/dL
IP (9 h): 9.7 mg/dL
K (9 h): 3.7 meq/L
LDH (9 h): 54.8 IU/L
Na (9 h): 142.2 meq/L
PL (9 h): 120.8 mg/dL
RALB (9 h): 2.5 g/dL
TBIL (9 h): 0.068 mg/dL
TC (9 h): 72.6 mg/dL
TG (9 h): 43.8 mg/dL
TP (9 h): 5.6 g/dL
gamma-GTP (9 h): 1.8 IU/L
TERMINAL_BW (24 h): 228.2 g
APTT (24 h): 15.8 s
Bas (24 h): 0.2%
Eos (24 h): 1%
Fbg (24 h): 302.6 mg/dL
Hb (24 h): 13 g/dL
Ht (24 h): 38.7%
Lym (24 h): 78.8%
MCH (24 h): 20.9 pg
MCHC (24 h): 33.6%
